Each molecule was assayed on Sphaerotheca fuliginea (assay: Sphaerotheca test (cucumber)/protective). Settings: cucumber plants, protective spray, 750 g/ha, evaluation 7 days after inoculation.
Assay type: in vivo
Protocol: Sphaerotheca Test (Cucumber)/Protective
Solvent: 49 parts by weight of N,N-dimethylformamide
Emulsifier: 1 part by weight of alkylaryl polyglycol ether
To produce a suitable preparation of active compound, 1 part by weight of active compound is mixed with the stated amounts of solvent and emulsifier, and the concentrate is diluted with water to the desired concentration.
To test for protective activity, young cucumber plants are sprayed with the preparation of active compound at the stated application rate. One day after the treatment, the plants are inoculated with a spore suspension of Sphaerotheca fuliginea. The plants are then placed in a greenhouse at 70% relative atmospheric humidity and a temperature of 23° C.
Evaluation is carried out 7 days after the inoculation. 0% means an efficacy which corresponds to that of the control, whereas an efficacy of 100% means that no infection is observed.
CC(C)CC(C)c1ccccc1NC(=O)c1cn(C)nc1Cl (stereo not drawn) [drawing 131] showed an Efficacy in % of 100%.
For CC(C)CC(C)c1cc(F)ccc1NC(=O)c1cn(C)nc1C(F)(F)F (stereo not drawn) [drawing 132], the Efficacy in % was 100%.
Work on Cc1sccc1C(=O)Nc1ccc(F)cc1C(C)CC(C)C (stereo not drawn) [drawing 133] yielded an Efficacy in % of 100%.
